Test results as given in BindingDB's records for doi:10.1016/j.bmc.2015.03.045 (Chungnam National University, 2015).

Experiment: Inhibition of mouse IL5-mediated mouse Y16 cell proliferation after 48 hrs by WST1 assay

IC50 [µM] | SMILES
16 | CC(=O)OCc1c(-c2ccccc2)oc2ccc(NC(=O)c3ccccc3)cc2c1=O
> 30 | CC(=O)OCc1c(-c2ccc(F)cc2)oc2ccc(NC(=O)c3ccccc3)cc2c1=O
> 30 | CC(=O)OCc1c(C2CCCCC2)oc2ccc(NS(=O)(=O)c3ccccc3)cc2c1=O
10 | O=C(Nc1ccc2oc(C3CCCCC3)c(CO)c(=O)c2c1)c1ccccc1
22 | O=C(Nc1ccc2oc(-c3ccccc3)c(CO)c(=O)c2c1)c1ccccc1

Second part, the compound before the results:

SMILES | IC50 [µM]
CC(=O)OCc1c(C2CCCCC2)oc2ccc(NC(=O)c3ccccc3)cc2c1=O | 6.1
CC(C)C(=O)OCc1c(C2CCCCC2)oc2ccc(NC(=O)c3ccccc3)cc2c1=O | 19
CC(C)(C)C(=O)OCc1c(C2CCCCC2)oc2ccc(NC(=O)c3ccccc3)cc2c1=O | > 30
CC(=O)OCc1c(C2CCCCC2)oc2ccc(NC(=O)C3CCCCC3)cc2c1=O | 20
CC(=O)OCc1c(C2CCCCC2)oc2ccc(NCc3ccccc3)cc2c1=O | 19.2
CC(=O)OCc1c(C2CCCCC2)oc2ccc(NC(=O)Nc3ccccc3)cc2c1=O | > 30
CC(=O)OCc1c(-c2ccccc2)oc2ccc(NC(=O)C3CCCCC3)cc2c1=O | 18
CC(=O)OCc1c(-c2ccccc2)oc2ccc(NC(=O)c3cnccn3)cc2c1=O | > 30
O=C(Nc1ccc2oc(-c3ccc(F)cc3)c(CO)c(=O)c2c1)c1ccccc1 | > 30
O=C(Nc1ccc2oc(C3CCCCC3)c(CO)c(=O)c2c1)C1CCCCC1 | > 30
O=C(Nc1ccc2oc(-c3ccccc3)c(CO)c(=O)c2c1)C1CCCCC1 | > 30
O=C(Nc1ccc2oc(-c3ccccc3)c(CO)c(=O)c2c1)c1cnccn1 | > 30
